In patent publication US10336730B2, “Substituted glycine derived FXIA inhibitors” (BRISTOL-MYERS SQUIBB COMPANY, priority 2015, dated 2019) one finds Ki data, which are given here for 24 molecules.

The target of this test is T1, purified human Factor XIa (Homo sapiens, UniProt P03951).
T1 construct: purchased Haematologic Technologies
Put plainly: Factor XIa enzyme inhibition assay (chromogenic substrate S-2366), Ki. Type of test: biochemical. Particulars: substrate S-2366, pH 7.4. The method, then: The effectiveness of compounds of the present invention as inhibitors of the coagulation Factors XIa, VIIa, IXa, Xa, XIIa, plasma kallikrein, thrombin, chemytrypsin or trypsin can be determined using a relevant purified serine protease, respectively, and an appropriate synthetic substrate. The rate of hydrolysis of the chromogenic or fluorogenic substrate by the relevant serine protease was measured both in the absence and presence of compounds of the present invention. […] A decrease in the rate of absorbance or fluorescence change in the presence of inhibitor is indicative of enzyme inhibition. Such methods are known to one skilled in the art. The results of this assay are expressed as the inhibitory constant, Ki.
Factor XIa determinations were made in 50 mM HEPES buffer at pH 7.4 containing 145 mM NaCl, 5 mM KCl, and 0.1% PEG 8000 (polyethylene glycol; JT Baker or Fisher Scientific). Determinations were made using purified human Factor XIa at a final concentration of […] (Haematologic Technologies) and the synthetic substrate S-2366 (pyroGlu-Pro-Arg-pNA; CHROMOGENIX® or AnaSpec) at a concentration of 0.0002-0.001 M.
Values of Ki were determined by allowing the protease to react with the substrate in the presence of the inhibitor. Reactions were allowed to go for periods of 20-180 minutes (depending on the protease) and the velocities (rate of absorbance or fluorescence change versus time) were measured. The following relationships were used to calculate Ki values: (Vmax*S)/(Km+S) (vo−vs)/vs=I/(Ki*(1+S/Km)) for a competitive inhibitor with one binding site; or vs/vo=A+(B−A)/(1+(IC50/(I)^n)); and Ki=IC50/(1+S/Km) for a competitive inhibitor where: […]

T1 sequence (P03951 388-625 limits assumed): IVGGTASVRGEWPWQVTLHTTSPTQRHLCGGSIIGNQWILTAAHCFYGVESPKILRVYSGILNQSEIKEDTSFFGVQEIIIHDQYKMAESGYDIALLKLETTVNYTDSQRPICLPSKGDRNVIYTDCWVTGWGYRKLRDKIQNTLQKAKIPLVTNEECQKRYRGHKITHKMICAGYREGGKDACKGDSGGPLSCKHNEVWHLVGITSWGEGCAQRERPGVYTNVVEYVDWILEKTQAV
T1 sequence (P03951 19-387 partner limits assumed): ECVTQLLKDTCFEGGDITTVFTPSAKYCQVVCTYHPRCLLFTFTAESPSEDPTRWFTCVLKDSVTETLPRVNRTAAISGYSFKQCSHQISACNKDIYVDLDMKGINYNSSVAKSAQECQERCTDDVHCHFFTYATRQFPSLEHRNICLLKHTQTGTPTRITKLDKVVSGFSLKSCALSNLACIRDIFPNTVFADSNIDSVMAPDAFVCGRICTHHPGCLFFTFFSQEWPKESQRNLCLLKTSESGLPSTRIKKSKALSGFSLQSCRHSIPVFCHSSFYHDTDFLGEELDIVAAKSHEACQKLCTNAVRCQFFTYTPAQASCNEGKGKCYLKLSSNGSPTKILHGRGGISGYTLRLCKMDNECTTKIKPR

Molecule `Cc1cnc(CNC(=O)[C@H](Cc2ccccc2)n2cnc(-c3cc(Cl)ccc3-n3cc(Cl)nn3)cc2=O)cn1` [Example 51, (S)-2-(4-(5-chloro-2-(4-chloro-1H-1,2,3-triazol-1-yl)phenyl)-6-oxopyrimidin-1(6H)-yl)-N-((5-methylpyrazin-2-yl)methyl)-3-phenylpropanamide] came in with a Ki of 1480 nM. This lies in the single-digit micromolar range.
Molecule `NC(=O)CNC(=O)[C@H](Cc1ccccc1)n1cnc(-c2cc(Cl)ccc2-n2cc(Cl)nn2)cc1=O` [Example 62, (S)-N-(2-amino-2-oxoethyl)-2-(4-(5-chloro-2-(4-chloro-1H-1,2,3-triazol-1-yl)phenyl)-6-oxopyrimidin-1(6H)-yl)-3-phenylpropanamide] came in with a Ki of 8980 nM.
In turn, `COCCN(C)C(=O)[C@H](Cc1ccccc1)n1cnc(-c2cc(Cl)ccc2-n2cc(Cl)nn2)cc1=O` [Example 58, (S)-2-(4-(5-chloro-2-(4-chloro-1H-1,2,3-triazol-1-yl)phenyl)-6-oxopyrimidin-1(6H)-yl)-N-(2-methoxyethyl)-N-methyl-3-phenylpropanamide] came in with a Ki of 7860 nM.
Regarding `O=C(Nc1cccc2ncccc12)[C@H](Cc1ccccc1)n1cnc(-c2cc(Cl)ccc2-n2cc(Cl)nn2)cc1=O` [Example 29, (S)-2-(4-(5-chloro-2-(4-chloro-1H-1,2,3-triazol-1-yl)phenyl)-6-oxopyrimidin-1(6H)-yl)-3-phenyl-N-(quinolin-5-yl)propanamide], the Ki was 162 nM.
On to `O=C([C@H](Cc1ccccc1)n1cnc(-c2cc(Cl)ccc2-n2cc(Cl)nn2)cc1=O)N1CCC(Cc2ccccc2)CC1` [Example 72, (S)-3-(1-(4-benzylpiperidin-1-yl)-1-oxo-3-phenylpropan-2-yl)-6-(5-chloro-2-(4-chloro-1H-1,2,3-triazol-1-yl)phenyl)pyrimidin-4(3H)-one], for which the Ki amounted to 13300 nM.
To `O=C(Nc1cnn(-c2ccc(Cl)cc2)c1)[C@H](Cc1ccccc1)n1cnc(-c2cc(Cl)ccc2-n2cc(Cl)nn2)cc1=O` [Example 119, (S)-2-(4-(5-chloro-2-(4-chloro-1H-1,2,3-triazol-1-yl)phenyl)-6-oxopyrimidin-1(6H)-yl)-N-(1-(4-chlorophenyl)-1H-pyrazol-4-yl)-3-phenylpropanamide] belongs 408 nM; to `COC(=O)CCNC(=O)[C@H](Cc1ccccc1)n1cnc(-c2cc(Cl)ccc2-n2cc(Cl)nn2)cc1=O` [Example 61, methyl (S)-3-(2-(4-(5-chloro-2-(4-chloro-1H-1,2,3-triazol-1-yl)phenyl)-6-oxopyrimidin-1(6H)-yl)-3-phenylpropanamido)propanoate], 3650 nM; to `Cc1ncn(-c2ccc(NC(=O)[C@H](Cc3ccccc3)n3cnc(-c4cc(Cl)ccc4-n4cc(Cl)nn4)cc3=O)cn2)n1` [Example 39, (S)-2-(4-(5-chloro-2-(4-chloro-1H-1,2,3-triazol-1-yl)phenyl)-6-oxopyrimidin-1(6H)-yl)-N-(6-(3-methyl-1H-1,2,4-triazol-1-yl)pyridin-3-yl)-3-phenylpropanamide], 110 nM.
Molecule `O=C(O)c1ccc(NC(=O)C(Cc2ccccc2)N2CCC(c3c(F)ccc(Cl)c3F)=CC2=O)cc1` (stereo not drawn) [Example 129, 4-{2-[4-(3-Chloro-2,6-difluorophenyl)-6-oxo-1,2,3,6-tetrahydropyridin-1-yl]-3-phenylpropanamido}benzoic Acid] had a Ki of 77 nM.
In the case of `NC(=O)c1ccc(NC(=O)[C@H](Cc2ccccc2)n2cnc(-c3cc(Cl)ccc3-n3cc(Cl)nn3)cc2=O)nc1` [Example 111, (S)-6-(2-(4-(5-chloro-2-(4-chloro-1H-1,2,3-triazol-1-yl)phenyl)-6-oxopyrimidin-1(6H)-yl)-3-phenylpropanamido)nicotinamide], the Ki is 106 nM.
Molecule `O=C(NCCc1cnccn1)[C@H](Cc1ccccc1)n1cnc(-c2cc(Cl)ccc2-n2cc(Cl)nn2)cc1=O` [Example 100, (S)-2-(4-(5-chloro-2-(4-chloro-1H-1,2,3-triazol-1-yl)phenyl)-6-oxopyrimidin-1(6H)-yl)-3-phenyl-N-(2-(pyrazin-2-yl)ethyl)propanamide] registered a Ki of 7050 nM.
In the case of `O=C(Nc1ncnc2[nH]ncc12)[C@H](Cc1ccccc1)n1cnc(-c2cc(Cl)ccc2-n2cc(Cl)nn2)cc1=O` [Example 109, (S)-2-(4-(5-chloro-2-(4-chloro-1H-1,2,3-triazol-1-yl)phenyl)-6-oxopyrimidin-1(6H)-yl)-3-phenyl-N-(1H-pyrazolo[3,4-d]pyrimidin-4-yl)propanamide], affinity was put at a Ki of 150 nM.
Molecule `CC(=O)NC1CCN(C(=O)[C@H](Cc2ccccc2)n2cnc(-c3cc(Cl)ccc3-n3cc(Cl)nn3)cc2=O)CC1` [Example 102, (S)-N-(1-(2-(4-(5-chloro-2-(4-chloro-1H-1,2,3-triazol-1-yl)phenyl)-6-oxopyrimidin-1(6H)-yl)-3-phenylpropanoyl)piperidin-4-yl)acetamide] returned a Ki of 3050 nM.
The same measure for `Cc1ccc(NC(=O)[C@H](Cc2ccccc2)n2cnc(-c3cc(Cl)ccc3-n3cc(Cl)nn3)cc2=O)nn1` [Example 106, (S)-2-(4-(5-chloro-2-(4-chloro-1H-1,2,3-triazol-1-yl)phenyl)-6-oxopyrimidin-1(6H)-yl)-N-(6-methylpyridazin-3-yl)-3-phenylpropanamide]: 325 nM; for `CC(C)c1cc(CNC(=O)[C@H](Cc2ccccc2)n2cnc(-c3cc(Cl)ccc3-n3cc(Cl)nn3)cc2=O)on1` [Example 80, (S)-2-(4-(5-chloro-2-(4-chloro-1H-1,2,3-triazol-1-yl)phenyl)-6-oxopyrimidin-1(6H)-yl)-N-((3-isopropylisoxazol-5-yl)methyl)-3-phenylpropanamide]: 3780 nM; for `O=C(NCc1cccnc1)[C@H](Cc1ccccc1)n1cnc(-c2cc(Cl)ccc2-n2cc(Cl)nn2)cc1=O` [Example 77, (S)-2-(4-(5-chloro-2-(4-chloro-1H-1,2,3-triazol-1-yl)phenyl)-6-oxopyrimidin-1(6H)-yl)-3-phenyl-N-(pyridin-3-ylmethyl)propanamide]: 1450 nM.
Molecule `O=C(NCc1ccc(Cl)cc1)[C@H](Cc1ccccc1)n1cnc(-c2cc(Cl)ccc2-n2cc(Cl)nn2)cc1=O` [Example 76, (S)-2-(4-(5-chloro-2-(4-chloro-1H-1,2,3-triazol-1-yl)phenyl)-6-oxopyrimidin-1(6H)-yl)-N-(4-chlorobenzyl)-3-phenylpropanamide] yielded a Ki of 1220 nM. This Ki and that of the molecule before are within 1.5-fold of each other.
The same measure for `O=C(Nc1ccnc2ccc(C(F)(F)F)cc12)[C@H](Cc1ccccc1)n1cnc(-c2cc(Cl)ccc2-n2cc(Cl)nn2)cc1=O` [Example 123, (S)-2-(4-(5-chloro-2-(4-chloro-1H-1,2,3-triazol-1-yl)phenyl)-6-oxopyrimidin-1(6H)-yl)-3-phenyl-N-(6-(trifluoromethyl)quinolin-4-yl)propanamide]: 7150 nM; for `CC(=O)N1CCN(C(=O)[C@H](Cc2ccccc2)n2cnc(-c3cc(Cl)ccc3-n3cc(Cl)nn3)cc2=O)CC1` [Example 60, (S)-3-(1-(4-acetylpiperazin-1-yl)-1-oxo-3-phenylpropan-2-yl)-6-(5-chloro-2-(4-chloro-1H-1,2,3-triazol-1-yl)phenyl)pyrimidin-4(3H)-one]: 7370 nM; for `NC(=O)c1cccc(C[C@@H](C(=O)Nc2ccc(C(=O)O)cc2)N2CCC(c3cc(Cl)ccc3-n3ccnn3)=CC2=O)c1` [Compound 139, (S)-4-(3-(3-carbamoylphenyl)-2-(4-(5-chloro-2-(1H-1,2,3-triazol-1-yl)phenyl)-6-oxo-3,6-dihydropyridin-1(2H)-yl)propanamido)benzoic Acid]: 25.2 nM.
To `O=C(NC1CCc2ccccc21)[C@H](Cc1ccccc1)n1cnc(-c2cc(Cl)ccc2-n2cc(Cl)nn2)cc1=O` (stereo partly drawn) [Example 127, (2S)-2-(4-(5-chloro-2-(4-chloro-1H-1,2,3-triazol-1-yl)phenyl)-6-oxopyrimidin-1(6H)-yl)-N-(2,3-dihydro-1H-inden-1-yl)-3-phenylpropanamide] belongs 837 nM.
`NC(=O)CCNC(=O)[C@H](Cc1ccccc1)n1cnc(-c2cc(Cl)ccc2-n2cc(Cl)nn2)cc1=O` [Example 59, (S)-N-(3-amino-3-oxopropyl)-2-(4-(5-chloro-2-(4-chloro-1H-1,2,3-triazol-1-yl)phenyl)-6-oxopyrimidin-1(6H)-yl)-3-phenylpropanamide]: the Ki is 6170 nM. This Ki lies about 7.4-fold higher than the previous one.
Molecule `O=C(Nc1cccc2[nH]ccc12)[C@H](Cc1ccccc1)n1cnc(-c2cc(Cl)ccc2-n2cc(Cl)nn2)cc1=O` [Example 26, (S)-2-(4-(5-chloro-2-(4-chloro-1H-1,2,3-triazol-1-yl)phenyl)-6-oxopyrimidin-1(6H)-yl)-N-(1H-indol-4-yl)-3-phenylpropanamide] yielded a Ki of 22.3 nM.
In the case of `O=C(Nc1n[nH]c2ccccc12)[C@H](Cc1ccccc1)n1cnc(-c2cc(Cl)ccc2-n2cc(Cl)nn2)cc1=O` [Example 125, (S)-2-(4-(5-chloro-2-(4-chloro-1H-1,2,3-triazol-1-yl)phenyl)-6-oxopyrimidin-1(6H)-yl)-N-(1H-indazol-3-yl)-3-phenylpropanamide], the Ki is 66.9 nM. This Ki is about 3-fold higher than that of the molecule before.

By Ki is commonly meant the equilibrium dissociation constant of an inhibitor or competing ligand from its target. Low values mean higher affinity, high ones lower affinity.
